One block for each compound: values may come before it.
Key:
[1] = system: antibody in the antiserum of rabbit immunized by the CPZ-BSA immunogen; experiment: Radioimmunoassay specificity: inhibition of 3H-CPZ binding to antibody; settings: for binding by the antibody (in words): competition with labeled CPZ; for concentration required to produce a 50% inhibition of 3H-chlorpromazine-antibody binding, relative to chlorpromazine: multiple of the CPZ concentration
Method: The antiserum of EXAMPLE 2 as used for the radioimmunoassay was diluted with normal rabbit serum which was diluted with phosphate-buffered saline, pH 7.4, at 1:10 dilution. To determine the antibody titre of antiserum, 0.1 ml. of various dilutions of the antiserum was incubated in an assay tube (10 × 75 mm) with 320 pg of ^3 H-CPZ approximately 7,000 dpm, at 4°C. overnight. The volume was adjusted to 0.5 ml. with phosphate-buffered salie, pH 7.4 which is the optimal pH for the assay. The antibody bound CPZ was separated from free CPZ by the addition of saturated ammonium sulfate which was adjusted to pH 7.4 with ammonium hydroxide as described by Farr, J. Infect. Dis. 103, 239 (1958). After two washings with 50% saturated ammonium sulfate, the precipitate was dissolved in 0.5 ml. of water. The content of the tube was transferred to a counting vial and the tube was then washed four times with 3 ml. of Riaflour. The 12 ml. washings were all collected in the vial. The radioactivity was then counted with a Beckman liquid scintillation counter. Thedilution of the antiserum chosen for further studies were 1:7,000.
Appropriate volume of phosphate-buffered saline, pH 7.4 was added to all the tubes containing 0.1 ml. of the antiserum to make a final incubation volume of 0.5 ml. To the tubes were added various quantities ranging from 100 ng. to 10 pg. (10 1) of CPZ, its derivatives, serotonin and dopamine. After a 15 minute preincubation, 10 l. of ^3 H-CPZ was added. The tubes were then incubated overnight at 4°C. followed by precipitation with ammonium sulfate.
Background and non-specific protein binding of ^3 H-CPZ were determined by excluding the antiserum from the incubation mixture. The counts representing the non-specific binding were then subtracted from all samples.
The specificity of the antibody in the antiserum of rabbit immunized by the CPZ-BSA immunogen was determined by incubating the antiserum with a number of CPz derivatives or the biologenic amines in the presence of labeled CPZ. […] CPZ substituted at C6, C7, or C8 with hydroxy group was not bound by the antibody to the same extent as CPZ. In order to obtain a 50% inhibition of ^3 H-CPZ-antibody complex formation, these hydroxylated derivatives of CPZ required concentrations which were 5-10 times that of CPZ. […] The 7hydroxy derivatives of Nor1 -CPZ or Nor2 CPZ likewise were poorly bound by the antibody. Another metabolic product which can be formed from CPZ is CPZ-N-oxide. […] Promazine, the dechlorinated derivative required about 8 times the concentration of CPZ to produce a 50% displacement of the labeled CPZ from the antibody.

[2] = Disposition of CPZ in rats: brain level by radioimmunoassay; type: in vivo, Male Sprague-Dawley rats; settings: rat
[3] = Disposition of CPZ in rats: plasma level by radioimmunoassay; type: in vivo, Male Sprague-Dawley rats; settings: iv, rat, 10 mg/kg CPZ hydrochloride intravenously, after initial rapid decline
Method: To determine the plasma concentration of CPZ, aliquots of plasma from animals which received CPZ were diluted with normal rat plasma. To the assay tubes containing antiserum, phosphate-buffered saline, pH 7.4, ^3 H-CPZ and 10 l of unknown samples were added, and incubated at 4°C. overnight. Free CPZ was separated from the antibody bound CPZ by ammonium sulfate precipitation.
Male Sprague-Dawley rats weighing 210-240 g. were injected intravenously with 10 mg/kg of CPZ hydrochloride. In one group of 6 rats, 0.1 ml. of blood samples were taken from the tail into a heparinized capillary tube at varying time intervals following the injection. The plasma was separated by centrifugation and frozen until assayed. Other 48 rats were killed by decapitation at the same intervals as above, and the brain was removed, frozen on dry ice and then kept in a deep freezer at -80°C. until assayed.
The radioimmunoassay procedure of Example 3 was applied to the determination of CPZ and some minor metabolites in rat plasma and brain following intravenous administration of CPZ hydrochloride.

SMILES: C[N+](C)([O-])CCCN1c2ccccc2Sc2ccc(Cl)cc21 [CPZ-N-oxide]
- binding by the antibody (in words) [1]: not bound to the antibody to any appreciable extent

- binding by the antibody (in words) [1]: not bound significantly
SMILES: NCCCN1c2ccccc2Sc2ccc(Cl)cc21 [nor2 -chlorpromazine]
- binding by the antibody (in words) ([1]; listed as Nor2 -CPZ): failed to recognize the compound unless the concentrations were extremely high

SMILES: CN(C)CCCN1c2ccccc2[S+]([O-])c2ccc(Cl)cc21 (stereo not drawn) [chlorpromazine sulfoxide]
- binding by the antibody (in words) [1]: not bound significantly
- binding by the antibody (in words) ([1]; listed as CPZ-sulfoxide): not recognized by the antibody unless the concentrations were high

- binding by the antibody (in words) [1]: not bound significantly
SMILES: CNCCCN1c2ccccc2Sc2ccc(Cl)cc21 [nor1 -chlorpromazine]
- binding by the antibody (in words) ([1]; listed as Nor1 -CPZ): bound by the antibody to a much lesser extent

SMILES: CN(C)CCCN1c2ccccc2Sc2ccc(Cl)cc21 [CPZ, Chlorpromazine]
- time to peak brain level of CPZ and metabolites ([2]; 10 mg/kg CPZ hydrochloride intravenously): Five
- persistence of peak brain level ([2]; in vivo, iv, 10 mg/kg): 30 min
- concentration producing a 50% inhibition of binding of 3H-CPZ to the antibody ([1]; 320 pg 3H-CPZ, antiserum 1:7,000, 0.5 ml, pH 7.4, 4°C overnight): 118 pg
- half-life [3]: ~4 h

- concentration required to produce a 50% inhibition of 3H-chlorpromazine-antibody binding, relative to chlorpromazine [1]: 5-10 times
- concentration required to produce a 50% inhibition of 3H-chlorpromazine-antibody binding, relative to chlorpromazine ([1]; listed as Promazine): about 8 times
SMILES: CN(C)CCCN1c2ccccc2Sc2ccccc21 [promazine]

- concentration required to produce a 50% inhibition of 3H-chlorpromazine-antibody binding, relative to chlorpromazine [1]: 5-10 times
SMILES: CN(C)CCCN1c2cc(O)ccc2Sc2ccc(Cl)cc21 [8-hydroxychlorpromazine]

- concentration required to produce a 50% inhibition of 3H-chlorpromazine-antibody binding, relative to chlorpromazine [1]: 5-10 times
SMILES: CN(C)CCCN1c2ccc(O)cc2Sc2ccc(Cl)cc21 [7-hydroxychlorpromazine]
